This is an account of results in patent US3984548A, “Substituted pyrido[1,2,3,-de]-1,4-benzoxazines as bactericides” (Riker Laboratories, Inc., priority 1974, dated 1976).

Common to all, as to assay type: cell-based
Holding throughout (parameters): key: +: active; -: inactive
Holding throughout (conditions): agar plates, 1 to 100 milligrams/liter

For one test, the system named is Streptococcus Sp. Description: standard plate dilution method, Streptococcus sp. Here is the method: (§1) The culture medium employed permits susceptibility testing of fastidious microorganisms towards antibiotics, sulfonamides and other chemotherapeutic agents. Tryptone soy agar (oxoid) of the following composition is the culture medium. In the test procedure, the amount of a compound required to give complete inhibition or no inhibition of the microbial growth on the agar plates was determined. The compound selected for evaluation is added to the agar medium to give concentrations of one, ten and one hundred milligrams per liter. A series of plates with these concentrations is prepared. Plates containing agar alone are included as controls. Ten percent horse serum is added to one series of such plates. Aliquots of broth culture of each of nine species of microorganisms are innoculated onto the agar plates containing the various compound concentrations and onto the control plates. The plates are incubated at 37° C. in a 10 percent carbon dioxide atmosphere for 18 to 25 hours. The microbial growth on each plate is read visually, and minimal inhibitory concentrations are recorded.

Another test relates to Staphylococcus aureus. Kind of test: standard plate dilution method, Staphylococcus aureus. The method, then:
as §1

Another test relates to Bacillus Subtilus. Description: standard plate dilution method, Bacillus subtilus. Here is the method:
as §1

In a further test the test system is Escherichia coli. Description: standard plate dilution method, Escherichia coli. The method, then:
as §1

A further test deals with Pseudmonas aeruginosa. Kind of test: standard plate dilution method, Pseudomonas aeruginosa. Here is the method: as §1
In a further test the test system is Mima polymorpha. Description: standard plate dilution method, Mima polymorpha. The method, then:
as §1

The subject of the next test is Herellea vaginicola. Description: standard plate dilution method, Herellea vaginicola. Here is the method: as §1

Take `Cc1cc(Cl)c2c(=O)c(C(=O)O)cn3c2c1OCC3C` (stereo not drawn) [Example 41 (acid)]: the “Microorganism SS (growth inhibition)” value in the test on Streptococcus Sp is given as “-”. Also, the “Microorganism SA (growth inhibition)” value in the test with Staphylococcus aureus was “+”. Besides, in the test with Bacillus Subtilus, the “Microorganism BS (growth inhibition)” value was “+”. Further, in the test on Escherichia coli, the “Microorganism EC (growth inhibition)” value was “+”. Moreover, in the test on Pseudmonas aeruginosa, the “Microorganism PA (growth inhibition)” value is “-”. The “Microorganism MP (growth inhibition)” value in the test on Mima polymorpha is given as “-”. Further, the “Microorganism HV (growth inhibition)” value with Herellea vaginicola is “+”.

Regarding `CCOC(=O)c1cn2c3c(cc(C)cc3c1=O)OCC2C` (stereo not drawn) [Example 1, ethyl 2,3-dihydro-3,9-dimethyl-7-oxo-7H-pyrido[1,2,3-de]-1,4-benzoxazine-6-carboxylate], the “Microorganism SS (growth inhibition)” value with Streptococcus Sp is recorded as “-”. Moreover, in the test on Staphylococcus aureus, the “Microorganism SA (growth inhibition)” value was “+”. Also, the “Microorganism BS (growth inhibition)” value in the test on Bacillus Subtilus was “+”. The “Microorganism EC (growth inhibition)” value in the test on Escherichia coli is reported as “+”. In the test on Pseudmonas aeruginosa, the “Microorganism PA (growth inhibition)” value is recorded as “-”. Besides, the “Microorganism MP (growth inhibition)” value with Mima polymorpha was “-”. The “Microorganism HV (growth inhibition)” value in the test with Herellea vaginicola was “+”.

Consider `CCOC(=O)c1cn2c3c(c(C)cc(Cl)c3c1=O)OCC2C` (stereo not drawn) [Example 41 (ester)], for which, in the test with Streptococcus Sp, the “Microorganism SS (growth inhibition)” value was “-”. For the same compound, the “Microorganism SA (growth inhibition)” value in the test with Staphylococcus aureus is “+”. In addition, the “Microorganism BS (growth inhibition)” value in the test with Bacillus Subtilus is recorded as “+”. In the test on Escherichia coli, the “Microorganism EC (growth inhibition)” value is “+”. For the same compound, the “Microorganism PA (growth inhibition)” value with Pseudmonas aeruginosa is given as “-”. In addition, the “Microorganism MP (growth inhibition)” value in the test with Mima polymorpha is reported as “-”. Besides, in the test on Herellea vaginicola, the “Microorganism HV (growth inhibition)” value is “+”.

In the case of `CCOC(=O)c1cn2c3c(cc(Cl)cc3c1=O)OCC2C` (stereo not drawn) [Example 4, ethyl 9-chloro-2,3-dihydro-3-methyl-7-oxo-7H-pyrido[1,2,3-de]-1,4-benzoxazine-6-carboxylate], the “Microorganism SS (growth inhibition)” value in the test with Streptococcus Sp is “-”. In addition, in the test with Staphylococcus aureus, the “Microorganism SA (growth inhibition)” value is listed as “+”. Moreover, in the test on Bacillus Subtilus, the “Microorganism BS (growth inhibition)” value was “+”. Besides, in the test on Escherichia coli, the “Microorganism EC (growth inhibition)” value is “+”. Further, the “Microorganism PA (growth inhibition)” value with Pseudmonas aeruginosa is recorded as “-”. For the same compound, the “Microorganism MP (growth inhibition)” value in the test with Mima polymorpha was “-”. Also, in the test on Herellea vaginicola, the “Microorganism HV (growth inhibition)” value is recorded as “+”.

In the case of `CC1COc2cc(F)cc3c(=O)c(C(=O)O)cn1c23` (stereo not drawn) [Example 24, 9-fluoro-2,3-dihydro-3-methyl-7-oxo-7H-pyrido[1,2,3-de]-1,4-benzoxazine-6-carboxylic acid], the “Microorganism SS (growth inhibition)” value with Streptococcus Sp is “+”. For the same compound, the “Microorganism SA (growth inhibition)” value in the test on Staphylococcus aureus was “+”. In the test on Bacillus Subtilus, the “Microorganism BS (growth inhibition)” value is “+”. Further, the “Microorganism EC (growth inhibition)” value in the test with Escherichia coli was “+”. Further, the “Microorganism PA (growth inhibition)” value in the test on Pseudmonas aeruginosa is “+”. Also, the “Microorganism MP (growth inhibition)” value in the test on Mima polymorpha is reported as “-”. In the test with Herellea vaginicola, the “Microorganism HV (growth inhibition)” value is given as “+”.

In the case of `CCOC(=O)c1cn2c3c(c(Cl)cc(C)c3c1=O)OCC2C` (stereo not drawn) [Example 37 (ester)], the “Microorganism SS (growth inhibition)” value in the test with Streptococcus Sp was “-”. For the same compound, in the test on Staphylococcus aureus, the “Microorganism SA (growth inhibition)” value is listed as “-”. Besides, in the test on Bacillus Subtilus, the “Microorganism BS (growth inhibition)” value is “+”. Besides, the “Microorganism EC (growth inhibition)” value with Escherichia coli is recorded as “-”. Further, the “Microorganism PA (growth inhibition)” value with Pseudmonas aeruginosa is “-”. Also, in the test with Mima polymorpha, the “Microorganism MP (growth inhibition)” value is “-”. In addition, the “Microorganism HV (growth inhibition)” value in the test on Herellea vaginicola is “-”.

`CC1COc2ccc([N+](=O)[O-])c3c(=O)c(C(=O)O)cn1c23` (stereo not drawn) [Example 44, 2,3-dihydro-3-methyl-8-nitro-7-oxo-7H-pyrido[1,2,3-de]-1,4-benzoxazine-6-carboxylic acid]: the “Microorganism SS (growth inhibition)” value in the test with Streptococcus Sp is “-”. The “Microorganism SA (growth inhibition)” value in the test on Staphylococcus aureus is “+”. The “Microorganism BS (growth inhibition)” value in the test with Bacillus Subtilus is listed as “+”. Besides, the “Microorganism EC (growth inhibition)” value with Escherichia coli is reported as “+”. The “Microorganism PA (growth inhibition)” value in the test on Pseudmonas aeruginosa is “-”. The “Microorganism MP (growth inhibition)” value in the test on Mima polymorpha is given as “-”. Also, the “Microorganism HV (growth inhibition)” value in the test with Herellea vaginicola is “+”.

For `Cc1cc(C)c2c(=O)c(C(=O)O)cn3c2c1OCC3C` (stereo not drawn) [Example 42 (acid)], the “Microorganism SS (growth inhibition)” value with Streptococcus Sp is given as “+”. For the same compound, in the test on Staphylococcus aureus, the “Microorganism SA (growth inhibition)” value was “+”. In the test with Bacillus Subtilus, the “Microorganism BS (growth inhibition)” value was “+”. The “Microorganism EC (growth inhibition)” value in the test with Escherichia coli is listed as “+”. The “Microorganism PA (growth inhibition)” value in the test on Pseudmonas aeruginosa was “+”. Also, the “Microorganism MP (growth inhibition)” value in the test with Mima polymorpha is reported as “+”. Besides, the “Microorganism HV (growth inhibition)” value in the test with Herellea vaginicola is on record as “+”.

For the compound `Cc1cc2c3c(c1)c(=O)c(C(=O)O)cn3C(C)CO2` (stereo not drawn) [Example 16, 2,3-dihydro-3,9-dimethyl-7-oxo-7H-pyrido[1,2,3-de]-1,4-benzoxazine-6-carboxylic acid], the “Microorganism SS (growth inhibition)” value in the test with Streptococcus Sp was “+”. For the same compound, the “Microorganism SA (growth inhibition)” value in the test on Staphylococcus aureus is listed as “+”. Further, the “Microorganism BS (growth inhibition)” value with Bacillus Subtilus is given as “+”. Further, the “Microorganism EC (growth inhibition)” value in the test on Escherichia coli was “+”. The “Microorganism PA (growth inhibition)” value in the test on Pseudmonas aeruginosa is listed as “-”. For the same compound, the “Microorganism MP (growth inhibition)” value in the test on Mima polymorpha is “-”. Also, the “Microorganism HV (growth inhibition)” value in the test with Herellea vaginicola is listed as “+”.

For the compound `CC1COc2ccc(F)c3c(=O)c(C(=O)O)cn1c23` (stereo not drawn) [Example 25, 8-fluoro-2,3-dihydro-3-methyl-7-oxo-7H-pyrido[1,2,3-de]-1,4-benzoxazine-6-carboxylic acid], in the test with Streptococcus Sp, the “Microorganism SS (growth inhibition)” value is “+”. The “Microorganism SA (growth inhibition)” value in the test with Staphylococcus aureus was “-”. In addition, the “Microorganism BS (growth inhibition)” value with Bacillus Subtilus is given as “+”. Moreover, in the test on Escherichia coli, the “Microorganism EC (growth inhibition)” value is “+”. The “Microorganism PA (growth inhibition)” value in the test with Pseudmonas aeruginosa was “-”. In the test on Mima polymorpha, the “Microorganism MP (growth inhibition)” value is reported as “-”. The “Microorganism HV (growth inhibition)” value in the test on Herellea vaginicola was “+”.

`O=C(O)c1cn2c3c(cc(F)cc3c1=O)OCC2` [Example 43 (acid)]: in the test with Streptococcus Sp, the “Microorganism SS (growth inhibition)” value is given as “+”. Moreover, the “Microorganism SA (growth inhibition)” value in the test with Staphylococcus aureus is “+”. For the same compound, the “Microorganism BS (growth inhibition)” value with Bacillus Subtilus is reported as “+”. Besides, the “Microorganism EC (growth inhibition)” value with Escherichia coli was “+”. Besides, the “Microorganism PA (growth inhibition)” value in the test on Pseudmonas aeruginosa is recorded as “-”. Besides, the “Microorganism MP (growth inhibition)” value in the test on Mima polymorpha is “-”. For the same compound, the “Microorganism HV (growth inhibition)” value in the test with Herellea vaginicola is “+”.

As for `CCOC(=O)c1cn2c3c(c(C)c(Cl)cc3c1=O)OCC2C` (stereo not drawn) [Example 34 (ester)], the “Microorganism SS (growth inhibition)” value in the test on Streptococcus Sp is “+”. For the same compound, the “Microorganism SA (growth inhibition)” value in the test on Staphylococcus aureus was “+”. The “Microorganism BS (growth inhibition)” value in the test on Bacillus Subtilus is reported as “+”. In the test with Escherichia coli, the “Microorganism EC (growth inhibition)” value is reported as “+”. Further, the “Microorganism PA (growth inhibition)” value with Pseudmonas aeruginosa is “+”. Besides, in the test with Mima polymorpha, the “Microorganism MP (growth inhibition)” value is recorded as “+”. In the test on Herellea vaginicola, the “Microorganism HV (growth inhibition)” value is “+”.
